Results as given in patent publication US8137978B2, “Diagnostic method for biomarkers of adverse coronary events” (Saint Louis University, priority 2009, dated 2012).

Legend:
[1] = test system: phagocyte; test: 2-BrHDA phagocyte chemoattractant activity; format: cell-based; conditions: phagocytes
[2] = test system: HepG2 cells; test: 2-chloropalmitic acid metabolism by HepG2 cells (GC-MS); format: in vitro ADME; conditions: added to cell culture medium, FIG. 9 Panel A
From the text: Two other chlorinated lipids that have prognostic value are α-chloroadipic acid and α-ClFA that is complexed (stored) in triglyceride pools. α-ClFA is metabolized by either storage in triglyceride pools or is broken down in the liver (FIG. 8). In brief α-ClFA is omega oxidized to produce dicarboxylic acids that are shortened and eventually excreted in the urine. […] Concomitant with the loss of 2-chloropalmitic acid is the accumulation of the omega oxidation product, 2-chlorohexadecanedioc acid (Panel B of FIG. 9). Further metabolism of 2-chlorohexadecanedioc acid leads to 2-chlorotetradecanedioc acid (Panel C of FIG. 9) and eventually 2-chloroadipic acid (Panel D of FIG. 9). These metabolites were quantified using gas chromatography-mass spectrometry techniques employing conversion of the carboxylic acids and dicarboxylic acids to their pentafluorobenzyl ester derivatives and negative ion-chemical ionization mass spectrometry.

[3] = test system: eosinophil peroxidase in PMA-stimulated eosinophils; conditions: physiological concentrations of NaCl and NaBr, FIG. 12
Description: Further studies have shown that reactive brominating species (RBS), produced by either MPO- or EPO-released by activated neutrophil or eosinophil, respectively, target plasmalogens. […] Bromide was the preferred substrate for eosinophil peroxidase and chloride was not appreciably used even at a 1000-fold molar excess. […] 2-BrHDA is preferentially produced in PMA-stimulated eosinophils (+PMA) incubated in the presence of physiological concentrations of NaCl and NaBr (FIG. 12). […] These findings may have implications in eosinophilic heart disease as well as pulmonary disease and some cancers, which include eosinophil infiltrations.

CCCCCCCCCCCCCCC(Br)C=O (stereo not drawn) [2-BrHDA, 2-bromohexadecanal]
chemoattractant activity [1]: phagocyte chemoattractant

CCCCCCCCCCCCCCC(Cl)C(=O)O (stereo not drawn) [2-chlorohexadecanoic acid]
2-chloropalmitic acid remaining in cell culture medium over time [2]: decreases in a time and concentration dependent manner

[N-]=[N+]=[N-] [azide]
2-BrHDA production in the presence of the peroxidase inhibitor [3]: 2-BrHDA was not produced
